One may read the Ki as a measure of affinity in units of concentration, obtained from inhibition or displacement.

Experiment [1] concerns the target T1, human growth hormone secretagogue receptor (hGHS-R1a) (Homo sapiens, UniProt Q92847).
T1 construct: purchased PerkinElmer BioSignal #RBHGHSM; host or cells: HEK-293, stably transfected
The experiment is described as follows: Competitive radioligand binding assay (ghrelin receptor), [125I]-ghrelin displacement on GHS-R/HEK 293 membranes. Conditions: for Ki: read-out: Ki.

The subject of experiment [2] is morphine-delayed gastric emptying and gastrointestinal transit in rats. The experiment is described as follows: Opioid (morphine)-delayed gastric emptying and gastrointestinal transit in rats. The format is in vivo, rat. Conditions: i.v., after morphine 3 mg/kg s.c., FIG. 16B. The text has this:
Opioid analgesics, such as morphine, are well known to delay gastrointestinal transit which is an important side-effect for this class of drugs. The clinical term for this syndrome is opioid bowel dysfunction (OBD). Importantly, patients recovering from abdominal surgery experience post-operative ileus that is further exacerbated by concomitant opioid therapy for post-surgical pain.
• 1. Rats (male, Sprague-Dawley, 250-300 g) are implanted with jugular vein catheters to accommodate dosing of test articles. • 2. Overnight-fasted rats are administered morphine (3 mg/kg s.c.). • 3. […] Radioactivity (^99mTc) in each tissue isolate is measured as a means of measuring the transit of the meal.

Like-named read-outs stand apart in the source and are kept apart here.

T1 sequence (Q92847 whole entry): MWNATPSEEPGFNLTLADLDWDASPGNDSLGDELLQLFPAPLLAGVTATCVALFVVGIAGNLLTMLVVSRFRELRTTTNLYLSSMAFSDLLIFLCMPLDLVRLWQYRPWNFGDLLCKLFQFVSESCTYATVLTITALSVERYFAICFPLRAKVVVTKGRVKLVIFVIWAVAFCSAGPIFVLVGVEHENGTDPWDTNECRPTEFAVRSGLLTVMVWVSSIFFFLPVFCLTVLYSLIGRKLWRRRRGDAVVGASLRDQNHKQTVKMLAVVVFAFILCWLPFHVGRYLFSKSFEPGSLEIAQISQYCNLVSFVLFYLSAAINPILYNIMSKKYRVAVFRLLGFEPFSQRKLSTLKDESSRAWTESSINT

Consider `CC1C(=O)NC(Cc2ccc(F)cc2)C(=O)NCCCc2ccccc2O[C@H](C)CNC(C2CC2)C(=O)N1C` (stereo partly shown) [compound 298], for which the Ki in experiment [1] (Table 3B, binding activity at the human ghrelin receptor) fell in the range of 10 to 100 nM; in experiment [1] (Table 4, TFA salts unless otherwise noted), 10 to 100 nM. Also, the “binding to hGHS-R1a” value in experiment [1] (representative binding inhibition curve, FIG. 10) is “binds competitively, reversibly, and with high affinity”. In addition, in experiment [2], the opioid-delayed gastrointestinal transit result is recorded as “effectively reversed in a dose-dependent manner”.
